Values of other authors in US20210220357A1, “1,3-THIAZOL-2-YL SUBSTITUTED BENZAMIDES FOR THE TREATMENT OF DISEASES ASSOCIATED WITH NERVE FIBER SENSITIZATION” (Bayer Aktiengesellschaft, priority 2018, published 2021).

System: treated subjects
Conditions: Clinical Phase II trials, taste sensation via the tongue

In the case of `COc1cc(C(C)C)c(Oc2cnc(N)nc2N)cc1S(N)(=O)=O` [AF-219, 5-(2,4-diamino-pyrimidin-5-yloxy)-4-isopropyl-2-methoxy-benzenesulfonamide], the taste disturbances is listed as “taste disturbances”.
